# Source: ChEMBL document CHEMBL1143605, “A pharmacophore hypothesis for P-glycoprotein substrate recognition using GRIND-based 3D-QSAR” (2005)
# System: MES-SA
# Assay: Inhibition of compound against MES-SA/DX5 cell line was determined using P-glycoprotein assay
# Format: functional, Homo sapiens
row,Structure (SMILES),log10 % Pgp inhibition vs cyclosporin A
1,CCCCOc1cc(C(=O)OCCN(CC)CC)ccc1N [BENOXINATE],0.84
2,CN1CCCC(n2nc(Cc3ccc(Cl)cc3)c3ccccc3c2=O)CC1 (stereo unspecified) [AZELASTINE],1.75
3,CC(=O)c1ccc2c(c1)N(CCCN(C)C)c1ccccc1S2 [ACEPROMAZINE],0.8
4,CN(C)C(=O)C(CCN1CCC(O)(c2ccc(Cl)cc2)CC1)(c1ccccc1)c1ccccc1 [LOPERAMIDE],1.58
5,CC(C)(C)c1ccc(C(O)CCCN2CCC(C(O)(c3ccccc3)c3ccccc3)CC2)cc1 (stereo unspecified) [TERFENADINE],1.65
6,COc1ccc(CCN(C)CCCC(C#N)(c2ccc(OC)c(OC)c2)C(C)C)cc1OC (stereo unspecified) [VERAPAMIL],1.63
7,CCCCc1oc2ccccc2c1C(=O)c1cc(I)c(OCCN(CC)CC)c(I)c1 [AMIODARONE],1.46
8,C=CC1CN2CCC1CC2C(=O)c1ccnc2ccc(OC)cc12 (stereo unspecified),1.26
9,CCN(CC)C(=O)N[C@H]1C[C@@H]2c3cccc4[nH]cc(c34)C[C@H]2N(C)C1 [TERGURIDE],1
10,C[C@H]1C[C@H]2[C@@H]3CCC4=CC(=O)C=C[C@]4(C)[C@H]3C(=O)C[C@]2(C)[C@@]1(O)C(=O)CO [MEPREDNISONE],0.86
11,CC(C)(C)c1ccc(C(=O)CCCN2CCC(OC(c3ccccc3)c3ccccc3)CC2)cc1 [EBASTINE],1.76
12,CCC(COC(=O)c1cc(OC)c(OC)c(OC)c1)(c1ccccc1)N(C)C (stereo unspecified) [TRIMEBUTINE],1.75
13,CC[C@H]1CN2CCc3cc(OC)c(OC)cc3[C@@H]2C[C@@H]1C[C@H]1NCCc2cc(OC)c(OC)cc21 [EMETINE],0.88
14,COc1ccc([C@@H]2Sc3ccccc3N(CCN(C)C)C(=O)[C@@H]2OC(C)=O)cc1 [DILTIAZEM],1.18
15,CC(C)COCC(CN(Cc1ccccc1)c1ccccc1)N1CCCC1 (stereo unspecified) [BEPRIDIL],1.56
16,CCc1nn(CCCN2CCN(c3cccc(Cl)c3)CC2)c(=O)n1CCOc1ccccc1 [NEFAZODONE],1.83
17,CC(C)/N=c1\cc2n(-c3ccc(Cl)cc3)c3ccccc3nc-2cc1Nc1ccc(Cl)cc1 [CLOFAZIMINE],1.8
18,CSc1ccc2c(c1)N(CCC1CCCCN1C)c1ccccc1S2 (stereo unspecified) [THIORIDAZINE],1.65
19,CCSc1ccc2c(c1)N(CCCN1CCN(C)CC1)c1ccccc1S2 [THIETHYLPERAZINE],1.26
20,CCN(CC)CC#CCOC(=O)C(O)(c1ccccc1)C1CCCCC1 (stereo unspecified) [OXYBUTYNIN],1.12
21,CN(C)CC/C=C1/c2ccccc2Sc2ccc(Cl)cc21 [CHLORPROTHIXENE],1.27
22,Cc1nc2sccn2c(=O)c1CCN1CCC(=C(c2ccc(F)cc2)c2ccc(F)cc2)CC1 [RITANSERIN],1.69
23,CN(C)CCOC(C)(c1ccccc1)c1ccc(Cl)cc1 (stereo unspecified) [CHLORPHENOXAMINE],0.91
24,OCc1cc(C(O)CNCCCCCCOCCCCc2ccccc2)ccc1O (stereo unspecified) [SALMETEROL],0.83
25,OCCN1CCN(CCCN2c3ccccc3Sc3ccc(C(F)(F)F)cc32)CC1 [FLUPHENAZINE],1.4
26,CN1CCN(CC/C=C2/c3ccccc3Sc3ccc(S(=O)(=O)N(C)C)cc32)CC1 [THIOTHIXENE],1.23
